The data set can be described thus: recombinant UMI read abundance after kanamycin selection (control-corrected) (log10(CPM+1)); higher = more efficient recombination; extreme values may be limits of the assay; sequences stand for … in AGTGCAGAGAAAATCGGCCAGTTTTCTCTGCCTGCAGTCCGCATGCCGTGGGACCCCTTGGGTTCTAACCTGTTGCCTAGATTTATGCAGCGGACTGCCTTTCTCCCAAAGTGATAAACCGG…AGGTTGGTTTCACT; site = the 11-nt donor. The gist of the method: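 Values, expressed as log10(CPM+1), derive from recombinant UMI counts converted to CPM, averaged across replicates and scaled by control-derived factors. Plating was with IPTG (0.07 mM) plus kanamycin or unselected, two replicates each. The screen pooled donor and donor-binding-loop pairs for the IS621 bridge recombinase in Escherichia coli.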
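Also: IS621 bridge recombinase in Escherichia coli cells against a fixed T5 target plasmid.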

With “GGAGTGGCATGGACCGGTTTTCCCGGTAATCCGTATTTGGG (site GGAGTGGCTTC)”, the “recombinant UMI read abundance (log10)” value worked out at 0.00897. In the case of “GGAGTTGCATGGACCGGTTTTCCCGGTAATCCGTATTTGGT (site GGAGTAGCTAC)”, the “recombinant UMI read abundance (log10)” value turned out to be 0.089. With “GGAGTTGCATGGACCGGTTTTCCCGGTAATCCGTATTTGGT (site GGAGTCGCTAC)” the figure was 1.05; with “GGAGTTGCATGGACCGGTTTTCCCGGTAATCCGTATTTGGT (site GGAGTGGCTAC)”, 0.00345; with “GGAGTTGCATGGACCGGTTTTCCCGGTAATCCGTATTTGGT (site GGAGTTGCTAC)”, 0.861. On to “GGATACACATGGACCGGTTTTCCCGGTAATCCGTATTTGGG (site GGATACACTCC)”, for which the “recombinant UMI read abundance (log10)” value came to 0.348. Under “GGATAGACATGGACCGGTTTTCCCGGTAATCCGTATTTGCT (site GGATAGACTAG)” stands 2.78.

With “GGATAGACATGGACCGGTTTTCCCGGTAATCCGTATTTGCT (site GGATAGACTCG)”, the “recombinant UMI read abundance (log10)” value turned out to be 0.855.

As to “GGATAGACATGGACCGGTTTTCCCGGTAATCCGTATTTGCT (site GGATAGACTGG)”, the “recombinant UMI read abundance (log10)” value came to 2.33. Under “GGATAGACATGGACCGGTTTTCCCGGTAATCCGTATTTGCT (site GGATAGACTTG)” stands 1.1; under “GGATAGCCATGGACCGGTTTTCCCGGTAATCCGTATTTGAG (site GGATAGCCTCT)”, 0.00752. For the sequence “GGATAGCCATGGACCGGTTTTCCCGGTAATCCGTATTTGCC (site GGATAGACTGG)”, the “recombinant UMI read abundance (log10)” value was found to be 0. Turning to “GGATAGCCATGGACCGGTTTTCCCGGTAATCCGTATTTGCC (site GGATAGCCTGG)”, the “recombinant UMI read abundance (log10)” value is 0.

As to “GGATAGCCATGGACCGGTTTTCCCGGTAATCCGTATTTGCC (site GGATAGGCTGG)”, the “recombinant UMI read abundance (log10)” value was found to be 0.

In the case of “GGATAGCCATGGACCGGTTTTCCCGGTAATCCGTATTTGCC (site GGATAGTCTGG)”, the “recombinant UMI read abundance (log10)” value worked out at 2.42. “GGATAGGCATGGACCGGTTTTCCCGGTAATCCGTATTTGCC (site GGATAGACTGG)”: the “recombinant UMI read abundance (log10)” value amounted to 1.94. In the case of “GGATAGGCATGGACCGGTTTTCCCGGTAATCCGTATTTGCC (site GGATAGCCTGG)”, the “recombinant UMI read abundance (log10)” value came to 0.855. “GGATAGGCATGGACCGGTTTTCCCGGTAATCCGTATTTGCC (site GGATAGGCTGG)”: the “recombinant UMI read abundance (log10)” value was 2.44. On to “GGATAGGCATGGACCGGTTTTCCCGGTAATCCGTATTTGCC (site GGATAGTCTGG)”, for which the “recombinant UMI read abundance (log10)” value stood at 0.642. For “GGATAGTCATGGACCGGTTTTCCCGGTAATCCGTATTTGCC (site GGATAGACTGG)”, the “recombinant UMI read abundance (log10)” value stood at 2.31. Consider “GGATAGTCATGGACCGGTTTTCCCGGTAATCCGTATTTGCC (site GGATAGCCTGG)”, for which the “recombinant UMI read abundance (log10)” value came to 0. On to “GGATAGTCATGGACCGGTTTTCCCGGTAATCCGTATTTGCC (site GGATAGGCTGG)”, for which the “recombinant UMI read abundance (log10)” value was found to be 0. As for “GGATAGTCATGGACCGGTTTTCCCGGTAATCCGTATTTGCC (site GGATAGTCTGG)”, the “recombinant UMI read abundance (log10)” value worked out at 2.79. On to “GGATCATCATGGACCGGTTTTCCCGGTAATCCGTATTTGTG (site GGATCATCTCA)”, for which the “recombinant UMI read abundance (log10)” value is 0.926. As to “GGATCGACATGGACCGGTTTTCCCGGTAATCCGTATTTGCC (site GGATAGACTGG)”, the “recombinant UMI read abundance (log10)” value turned out to be 1.48. “GGATCGACATGGACCGGTTTTCCCGGTAATCCGTATTTGCC (site GGATCGACTGG)”: the “recombinant UMI read abundance (log10)” value was 1.28.

Consider “GGATCGACATGGACCGGTTTTCCCGGTAATCCGTATTTGCC (site GGATGGACTGG)”, for which the “recombinant UMI read abundance (log10)” value turned out to be 0. Under “GGATCGACATGGACCGGTTTTCCCGGTAATCCGTATTTGCC (site GGATTGACTGG)” stands 0; under “GGATCGCCATGGACCGGTTTTCCCGGTAATCCGTATTTGCG (site GGATCGCCTCG)”, 0.0649. Turning to “GGATGGACATGGACCGGTTTTCCCGGTAATCCGTATTTGCC (site GGATAGACTGG)”, the “recombinant UMI read abundance (log10)” value amounted to 2.17. Consider “GGATGGACATGGACCGGTTTTCCCGGTAATCCGTATTTGCC (site GGATCGACTGG)”, for which the “recombinant UMI read abundance (log10)” value was determined as 0. In the case of “GGATGGACATGGACCGGTTTTCCCGGTAATCCGTATTTGCC (site GGATGGACTGG)”, the “recombinant UMI read abundance (log10)” value was found to be 2.47.

For “GGATGGACATGGACCGGTTTTCCCGGTAATCCGTATTTGCC (site GGATTGACTGG)”, the “recombinant UMI read abundance (log10)” value was determined as 0. As for “GGATGGCCATGGACCGGTTTTCCCGGTAATCCGTATTTGCA (site GAATGGCCTTG)”, the “recombinant UMI read abundance (log10)” value was 0. With “GGATGGCCATGGACCGGTTTTCCCGGTAATCCGTATTTGCA (site GCATGGCCTTG)”, the “recombinant UMI read abundance (log10)” value was 0. Turning to “GGATGGCCATGGACCGGTTTTCCCGGTAATCCGTATTTGCA (site GGATGGCCTTG)”, the “recombinant UMI read abundance (log10)” value turned out to be 0.0128.

As to “GGATGGCCATGGACCGGTTTTCCCGGTAATCCGTATTTGCA (site GTATGGCCTTG)”, the “recombinant UMI read abundance (log10)” value turned out to be 0.

Consider “GGATTCGCATGGACCGGTTTTCCCGGTAATCCGTATTTGCG (site GGATTCGCTCG)”, for which the “recombinant UMI read abundance (log10)” value came out at 0.0184. On to “GGATTGACATGGACCGGTTTTCCCGGTAATCCGTATTTGTT (site GGATTGACTAA)”, for which the “recombinant UMI read abundance (log10)” value is 0.888. Regarding “GGCAAAACATGGACCGGTTTTCCCGGTAATCCGTATTTGTT (site GGCAAAACTAA)”, the “recombinant UMI read abundance (log10)” value came out at 0.56. “GGCAAGCCATGGACCGGTTTTCCCGGTAATCCGTATTTGAA (site GGCAAACCTTT)”: the “recombinant UMI read abundance (log10)” value came out at 0. On to “GGCAAGCCATGGACCGGTTTTCCCGGTAATCCGTATTTGAA (site GGCAACCCTTT)”, for which the “recombinant UMI read abundance (log10)” value was 0. As to “GGCAAGCCATGGACCGGTTTTCCCGGTAATCCGTATTTGAA (site GGCAAGCCTTT)”, the “recombinant UMI read abundance (log10)” value was determined as 0.247. Take “GGCAAGCCATGGACCGGTTTTCCCGGTAATCCGTATTTGAA (site GGCAATCCTTT)”: the “recombinant UMI read abundance (log10)” value was 0. As for “GGCAATGCATGGACCGGTTTTCCCGGTAATCCGTATTTGAA (site GGCAATACTTT)”, the “recombinant UMI read abundance (log10)” value was determined as 0. With “GGCAATGCATGGACCGGTTTTCCCGGTAATCCGTATTTGAA (site GGCAATCCTTT)” the figure was 0.

With “GGCAATGCATGGACCGGTTTTCCCGGTAATCCGTATTTGAA (site GGCAATGCTTT)”, the “recombinant UMI read abundance (log10)” value was found to be 1.26.

In the case of “GGCAATGCATGGACCGGTTTTCCCGGTAATCCGTATTTGAA (site GGCAATTCTTT)”, the “recombinant UMI read abundance (log10)” value is 0.536. For the sequence “GGCATATCATGGACCGGTTTTCCCGGTAATCCGTATTTGCA (site GGCATATCTTG)”, the “recombinant UMI read abundance (log10)” value turned out to be 1.57. Under “GGCCACCCATGGACCGGTTTTCCCGGTAATCCGTATTTGTC (site GGCCACCCTAA)” stands 0.133. Regarding “GGCCACCCATGGACCGGTTTTCCCGGTAATCCGTATTTGTC (site GGCCACCCTCA)”, the “recombinant UMI read abundance (log10)” value worked out at 0.0127. Under “GGCCACCCATGGACCGGTTTTCCCGGTAATCCGTATTTGTC (site GGCCACCCTGA)” stands 0; under “GGCCACCCATGGACCGGTTTTCCCGGTAATCCGTATTTGTC (site GGCCACCCTTA)”, 0.0183; under “GGCCACCCATGGACCGGTTTTCCCGGTAATCCGTATTTGTT (site AGCCACCCTAA)”, 0.0306. With “GGCCACCCATGGACCGGTTTTCCCGGTAATCCGTATTTGTT (site CGCCACCCTAA)” the figure was 0.181; with “GGCCACCCATGGACCGGTTTTCCCGGTAATCCGTATTTGTT (site GACCACCCTAA)”, 0.018. With “GGCCACCCATGGACCGGTTTTCCCGGTAATCCGTATTTGTT (site GCCCACCCTAA)”, the “recombinant UMI read abundance (log10)” value came out at 0.0196. For the sequence “GGCCACCCATGGACCGGTTTTCCCGGTAATCCGTATTTGTT (site GGACACCCTAA)”, the “recombinant UMI read abundance (log10)” value amounted to 0.0221. For the sequence “GGCCACCCATGGACCGGTTTTCCCGGTAATCCGTATTTGTT (site GGCAACCCTAA)”, the “recombinant UMI read abundance (log10)” value stood at 0.00185.

Regarding “GGCCACCCATGGACCGGTTTTCCCGGTAATCCGTATTTGTT (site GGCCAACCTAA)”, the “recombinant UMI read abundance (log10)” value turned out to be 0.0287. With “GGCCACCCATGGACCGGTTTTCCCGGTAATCCGTATTTGTT (site GGCCACACTAA)” the figure was 0.0112; with “GGCCACCCATGGACCGGTTTTCCCGGTAATCCGTATTTGTT (site GGCCACCCTAA)”, 0.0168; with “GGCCACCCATGGACCGGTTTTCCCGGTAATCCGTATTTGTT (site GGCCACCCTAC)”, 0.0176.

For “GGCCACCCATGGACCGGTTTTCCCGGTAATCCGTATTTGTT (site GGCCACCCTAG)”, the “recombinant UMI read abundance (log10)” value was found to be 0. As to “GGCCACCCATGGACCGGTTTTCCCGGTAATCCGTATTTGTT (site GGCCACCCTAT)”, the “recombinant UMI read abundance (log10)” value is 0.0103. For the sequence “GGCCACCCATGGACCGGTTTTCCCGGTAATCCGTATTTGTT (site GGCCACCCTCA)”, the “recombinant UMI read abundance (log10)” value worked out at 0. Turning to “GGCCACCCATGGACCGGTTTTCCCGGTAATCCGTATTTGTT (site GGCCACCCTGA)”, the “recombinant UMI read abundance (log10)” value came out at 0. With “GGCCACCCATGGACCGGTTTTCCCGGTAATCCGTATTTGTT (site GGCCACCCTTA)”, the “recombinant UMI read abundance (log10)” value was found to be 0.00548.

Source of the values: the supplement of paper PMC11208160.
